# In US4055715A, “Method of producing 1-N-[L-(-)-α-hydroxy-γ-aminobutyryl]XK-62-2” (Abbott Laboratories, priority 1974, dated 1977):
# Legend:
# [1] = system: Pseudomonas aeruginosa BMH 1; assay: Agar-dilution MIC, pH 8.0 (Table 1); format: cell-based; settings: BMH1, P. aeruginosa BMH 1, agar-dilution, pH 8.0, read-out: Minimum Inhibitory Concentration
# [2] = system: Staphylococcus aureus ATCC 6538P; assay: Agar-dilution MIC, pH 8.0 (Table 1); format: cell-based; settings: ATCC6538P, S. aureus ATCC 6538P, agar-dilution, pH 8.0, read-out: Minimum Inhibitory Concentration
# [3] = system: Bacillus subtilis No. 10707; assay: Agar-dilution MIC, pH 8.0 (Table 1); format: cell-based; settings: B. subtilis No. 10707, agar-dilution, pH 8.0, read-out: Minimum Inhibitory Concentration
# [4] = system: Proteus vulgaris ATCC 6897; assay: microbe, parasite or virus in culture; format: cell-based; settings: ATCC6897, P. vulgaris ATCC 6897, agar-dilution, pH 8.0, read-out: Minimum Inhibitory Concentration
# [5] = system: Salmonella typhosa ATCC 9992; assay: Agar-dilution MIC, pH 8.0 (Table 1); format: cell-based; settings: Salmonella enterica, pH 8, read-out: Minimum Inhibitory Concentration
# [6] = system: Krebsiella pneumoniae ATCC 10031; assay: Agar-dilution MIC, pH 8.0 (Table 1); format: cell-based; settings: Klebsiella pneumoniae, ATCC10031; K. pneumoniae ATCC 10031; agar-dilution, pH 8.0; read-out: Minimum Inhibitory Concentration
# [7] = system: Escherichia coli ATCC 26; assay: Agar-dilution MIC, pH 8.0 (Table 1); format: cell-based; settings: ATCC26, E. coli ATCC 26, agar-dilution, pH 8.0, read-out: Minimum Inhibitory Concentration
# [8] = system: Escherichia coli KY 8327; assay: Agar-dilution MIC, pH 8.0 (Table 1); format: cell-based
# Description: (§1) The former bacterium inactivates kanamycins and gentamicins by adenylation, and the latter inactivates gentamicins by acetylation.
# [9] = system: Escherichia coli KY 8348; assay: Agar-dilution MIC, pH 8.0 (Table 1); format: cell-based
# Description: as §1
# [10] = system: Staphylococcus aureus 209 P; assay: Agar dilution MIC, pH 7.2 (Table 2); format: cell-based; settings: S. aureus 209 P, agar dilution, pH 7.2, read-out: Minimum Inhibitory Concentration
# [11] = system: Staphylococcus aureus Smith; assay: Agar dilution MIC, pH 7.2 (Table 2); format: cell-based; settings: S. aureus Smith, agar dilution, pH 7.2, read-out: Minimum Inhibitory Concentration
# [12] = system: Bacillus subtilis ATCC 6633; assay: Agar dilution MIC, pH 7.2 (Table 2); format: cell-based; settings: ATCC6633, B. subtilis ATCC 6633, agar dilution, pH 7.2, read-out: Minimum Inhibitory Concentration
# [13] = system: Sarcina lutea ATCC 9341; assay: Agar dilution MIC, pH 7.2 (Table 2); format: cell-based; settings: Micrococcus luteus, ATCC9341; Sarcina lutea ATCC 9341; agar dilution, pH 7.2; read-out: Minimum Inhibitory Concentration
# [14] = system: Escherichia coli T-2; assay: Agar dilution MIC, pH 7.2 (Table 2); format: cell-based; settings: T2, E. coli T-2, agar dilution, pH 7.2, read-out: Minimum Inhibitory Concentration
# [15] = system: Escherichia coli T-5; assay: Agar dilution MIC, pH 7.2 (Table 2); format: cell-based; settings: T5, E. coli T-5, agar dilution, pH 7.2, read-out: Minimum Inhibitory Concentration
# [16] = system: Escherichia coli KY 8327; assay: Agar dilution MIC, pH 7.2 (Table 2); format: cell-based; settings: KY8327, E. coli KY 8327, read-out: Minimum Inhibitory Concentration
# [17] = system: Escherichia coli KY 8321; assay: Agar dilution MIC, pH 7.2 (Table 2); format: cell-based; settings: KY8321, E. coli KY 8321, produces gentamicin adenyltransferase and neomycin-kanamycin phosphotransferase Type II, agar dilution, pH 7.2, read-out: Minimum Inhibitory Concentration
# [18] = system: Escherichia coli KY 8348; assay: Agar dilution MIC, pH 7.2 (Table 2); format: cell-based; settings: KY8348, E. coli KY 8348, produces gentamicin acetyltransferase Type I, read-out: Minimum Inhibitory Concentration
# [19] = system: Escherichia coli KY 8349; assay: Agar dilution MIC, pH 7.2 (Table 2); format: cell-based; settings: KY8349, E. coli KY 8349, produces neomycin-kanamycin phosphotransferase Type I, read-out: Minimum Inhibitory Concentration
# [20] = system: Pseudomonas aeruginosa BMH 1; assay: Agar dilution MIC, pH 7.2 (Table 2); format: cell-based; settings: BMH1, P. aeruginosa BMH 1, agar dilution, pH 7.2, read-out: Minimum Inhibitory Concentration
# [21] = system: Pseudomonas aeruginosa KY 8510; assay: Agar dilution MIC, pH 7.2 (Table 2); format: cell-based; settings: KY8510, P. aeruginosa KY 8510, produces kanamycin acetyltransferase, agar dilution, pH 7.2, read-out: Minimum Inhibitory Concentration
# [22] = system: Pseudomonas aeruginosa KY 8511; assay: Agar dilution MIC, pH 7.2 (Table 2); format: cell-based; settings: KY8511, P. aeruginosa KY 8511, produces gentamicin acetyltransferase Type I and neomycin-kanamycin phosphotransferase Type I, agar dilution, pH 7.2, read-out: Minimum Inhibitory Concentration
# [23] = system: Pseudomonas aeruginosa KY 8516; assay: Agar dilution MIC, pH 7.2 (Table 2); format: cell-based; settings: KY8516, P. aeruginosa KY 8516, probably produces kanamycin acetyltransferase, agar dilution, pH 7.2, read-out: Minimum Inhibitory Concentration
# [24] = system: Providencia sp. 164; assay: Agar dilution MIC, pH 7.2 (Table 2); format: cell-based; settings: Providencia sp. 164, produces gentamicin acetyltransferase Type II, read-out: Minimum Inhibitory Concentration
# [25] = system: Klebsiella pneumoniae No. 8045; assay: Agar dilution MIC, pH 7.2 (Table 2); format: cell-based; settings: K. pneumoniae No. 8045, agar dilution, pH 7.2, read-out: Minimum Inhibitory Concentration
# [26] = system: Proteus mirabilis 1287; assay: Agar dilution MIC, pH 7.2 (Table 2); format: cell-based; settings: Proteus mirabilis; P. mirabilis 1287; agar dilution, pH 7.2; read-out: Minimum Inhibitory Concentration
# [27] = system: Proteus vulgaris 6897; assay: Agar dilution MIC, pH 7.2 (Table 2); format: cell-based; settings: Proteus vulgaris; P. vulgaris 6897; agar dilution, pH 7.2; read-out: Minimum Inhibitory Concentration
# [28] = Acute toxicity in mice, intravenous injection; settings: mouse, in vivo
# [29] = system: strains of the aforementioned resistant bacteria; assay: Protection tests against infections induced by resistant bacteria; format: in vivo
# [30] = system: Escherichia coli having R factors; assay: Antibacterial activity against R factor strains; format: cell-based; settings: E. coli having R factors, resistant to known aminoglycoside antibiotics
smiles,measurement,setting,value
"CNC[C@@H]1CC[C@@H](N)[C@@H](O[C@H]2[C@H](O)[C@@H](O[C@H]3OC[C@](C)(O)[C@H](NC)[C@H]3O)[C@H](NC(=O)[C@@H](O)CCN)C[C@@H]2N)O1 [Compound IV, 1-N-[L-(-)-α-hydroxy-γ-aminobutyryl] XK-62-2]",MIC,[1],2.08 µg/mL
same,MIC,[2],0.016 µg/mL
same,MIC,[3],0.004 µg/mL
same,MIC,[4],0.065 µg/mL
same,MIC,[5],0.008 µg/mL
same,MIC,[6],0.008 µg/mL
same,MIC,[7],0.004 µg/mL
same,antibacterial activity (in words),"[8]; E. coli KY 8327, from Table 1",strong anti-bacterial activity
same,MIC,"[8]; Escherichia coli, KY8327, E. coli KY 8327, produces gentamicin adenyltransferase, agar-dilution, pH 8.0, read-out: Minimum Inhibitory Concentration",0.016 µg/mL
same,antibacterial activity (in words),"[9]; E. coli KY 8348, from Table 1",strong anti-bacterial activity
same,MIC,"[9]; Escherichia coli, KY8348, E. coli KY 8348, produces gentamicin acetyltransferase Type I, agar-dilution, pH 8.0, read-out: Minimum Inhibitory Concentration",0.004 µg/mL
same,MIC,[10],0.1 µg/mL
same,MIC,[11],0.1 µg/mL
same,MIC,[12],0.1 µg/mL
same,MIC,[13],0.4 µg/mL
same,MIC,[14],0.4 µg/mL
same,MIC,[15],0.4 µg/mL
same,MIC,[16],0.2 µg/mL
same,MIC,[17],0.2 µg/mL
same,MIC,[18],0.1 µg/mL
same,MIC,[19],0.2 µg/mL
same,MIC,[20],1.56 µg/mL
same,MIC,[21],3.12 µg/mL
same,MIC,[22],3.12 µg/mL
same,MIC,[23],3.12 µg/mL
same,MIC,[24],12.5 µg/mL
same,MIC,[25],0.2 µg/mL
same,MIC,[26],3.12 µg/mL
same,MIC,[27],3.12 µg/mL
same,LD50,[28],250 mg/kg
same,antibacterial activity in protection tests,"[29]; infections induced by resistant bacteria, versus gentamicin antibiotics and XK-62-2",much higher antibacterial activity than the gentamicin antibiotics and XK-62-2
same,retention of the α-hydroxy-γ-aminobutyryl group in vivo,"[29]; protection tests, in vivo",maintain the α-hydroxy-γ-aminobutyryl group in vivo
same,antibacterial activity (in words),[30],strong anti-bacterial activity
